Earlier results as cited in patent publication EP0188214A2, “Novel growth hormone-releasing peptides and method of treating mammals therewith” (The Administrators of The Tulane University Educational Fund, priority 1985, dated 1986).
Ends that are not written are not given here.

System: rat anterior pituitary
Details: rat anterior pituitary in vitro and in vivo; literature

Substance | growth hormone(GH)-releasing activity
hp GRF(1-29)-NH2: synthetic amidated fragment of the natural hp GRF (YADAIFTNSYRKVLGQLSARKLLQDIMSR-NH2; UniProt P01286 32-60, looked up, fragment) | full intrinsic biological activity
hpGRF: growth hormone-releasing factors (GRF) of human pancreatic islet tumor origin (YADAIFTNSYRKVLGQLSARKLLQDIMSRQQGESNQERGARARL; ends and bridges not checked; UniProt P01286 32-75, looked up) | possess growh hormone(GH)-releasing activity
